Each block holds one compound with its values, some of them ahead of it. Active and inactive are the calls of the source.
Key:
Cytochrome P450 1A2 = molecular target: T1, Cytochrome P450 1A2 (Homo sapiens, UniProt P05177);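 also: PubChem cytochrome P450 panel assay, CYP1A2 panel member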
T1 sequence (P05177 whole entry): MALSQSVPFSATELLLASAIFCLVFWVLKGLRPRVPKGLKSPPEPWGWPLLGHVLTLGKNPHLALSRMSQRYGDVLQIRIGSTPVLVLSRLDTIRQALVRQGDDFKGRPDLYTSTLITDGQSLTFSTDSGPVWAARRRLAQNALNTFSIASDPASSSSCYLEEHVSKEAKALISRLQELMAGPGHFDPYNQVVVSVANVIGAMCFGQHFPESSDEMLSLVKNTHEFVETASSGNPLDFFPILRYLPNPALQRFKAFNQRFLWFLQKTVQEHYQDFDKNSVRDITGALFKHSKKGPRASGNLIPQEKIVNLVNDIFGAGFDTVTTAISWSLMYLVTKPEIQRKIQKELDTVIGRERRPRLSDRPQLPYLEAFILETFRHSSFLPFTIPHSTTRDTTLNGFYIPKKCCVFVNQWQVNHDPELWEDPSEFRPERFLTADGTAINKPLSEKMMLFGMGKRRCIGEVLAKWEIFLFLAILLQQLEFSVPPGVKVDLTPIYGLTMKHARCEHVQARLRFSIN

[1] = molecular target: T2, Heat shock factor protein 1 (Mus musculus, UniProt P38532); experiment: decrease of HSF1-responsive luciferase luminescence – cell-based, NIH3T3, dose retest, confirmation (AID 2382); type: functional;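 also: NIH3T3 fibroblasts with HSF1-driven luciferase reporter stressed by proteasome inhibitor MG132; luminescence from HSF1-driven luciferase expression after 8 hours of MG132 stress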
T2 sequence (P38532 whole entry): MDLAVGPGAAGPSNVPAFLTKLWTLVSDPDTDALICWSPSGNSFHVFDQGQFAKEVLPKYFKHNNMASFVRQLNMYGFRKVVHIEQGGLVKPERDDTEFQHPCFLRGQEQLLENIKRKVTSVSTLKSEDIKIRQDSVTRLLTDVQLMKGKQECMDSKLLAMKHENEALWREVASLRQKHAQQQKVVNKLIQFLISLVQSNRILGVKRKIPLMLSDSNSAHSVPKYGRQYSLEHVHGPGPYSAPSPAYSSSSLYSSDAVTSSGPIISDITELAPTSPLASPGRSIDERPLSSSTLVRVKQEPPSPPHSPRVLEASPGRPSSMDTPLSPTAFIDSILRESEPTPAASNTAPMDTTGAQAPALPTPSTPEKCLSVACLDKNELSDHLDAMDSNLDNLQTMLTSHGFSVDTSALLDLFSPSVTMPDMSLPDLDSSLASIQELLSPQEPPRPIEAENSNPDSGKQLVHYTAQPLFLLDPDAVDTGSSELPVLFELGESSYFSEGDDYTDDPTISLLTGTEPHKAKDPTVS

Cytochrome P450 2C19 = Cytochrome P450 2C19 (Homo sapiens, UniProt P33261); experiment: Cytochrome panel assay with activity outcomes. Panel member name: p450-cyp2c19 Compounds with AC50 equal or less than 10 uM are considered active; type: functional
Sequence of Cytochrome P450 2C19 (P33261 whole entry): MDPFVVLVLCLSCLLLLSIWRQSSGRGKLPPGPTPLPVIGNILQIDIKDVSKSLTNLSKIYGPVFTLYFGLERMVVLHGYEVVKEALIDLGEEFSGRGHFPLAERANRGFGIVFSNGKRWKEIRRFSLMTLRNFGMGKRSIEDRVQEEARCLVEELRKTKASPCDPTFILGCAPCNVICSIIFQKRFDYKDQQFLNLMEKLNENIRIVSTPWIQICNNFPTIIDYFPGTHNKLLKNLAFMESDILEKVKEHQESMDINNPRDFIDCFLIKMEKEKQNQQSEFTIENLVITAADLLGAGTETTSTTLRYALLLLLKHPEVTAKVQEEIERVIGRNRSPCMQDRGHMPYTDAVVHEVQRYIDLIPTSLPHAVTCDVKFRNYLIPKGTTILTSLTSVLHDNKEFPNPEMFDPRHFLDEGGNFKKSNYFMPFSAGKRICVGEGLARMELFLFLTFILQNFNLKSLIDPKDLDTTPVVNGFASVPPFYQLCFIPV

[2] = NIH3T3 cell viability loss – ATP luminescence, mouse fibroblasts, counter-screen, dose response (AID 2010); type: functional, cell-based;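 also: cells exposed to compound for about 90 hours before reading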
[3] = Trypanosoma cruzi growth suppression in host cells – NIH3T3 host cells, beta-gal luminescence, confirmation (AID 2044); type: functional, cell-based;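 also: intracellular parasites grown in NIH/3T3 mouse fibroblasts as host cells; luminescent beta-galactosidase reporter signal from transgenic T. cruzi replicating inside host cells; inhibitors lower the luminescence signal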
[4] = viability of uninfected HEp-2 cells – cell-based, HTS, cytotoxicity control for RSV inhibitor project, dose response (AID 2410); type: functional; conditions: human respiratory syncytial virus

AC50 (Cytochrome P450 1A2): 28.2 µM (inconclusive)
SMILES: C/C(=N\OC(=O)c1ccc(F)cc1)c1nccs1

EC50 [1]: > 195 µM (not active)
SMILES: O=C(CCCOc1ccccc1)Nc1nccs1

AC50 (Cytochrome P450 2C19; read-out: AC50): 39.8 µM (inconclusive)
SMILES: Cc1ccc(C(=O)NNC(=O)C2CCCN(c3ncccn3)C2)cc1 (configuration not stated)

AC50 (Cytochrome P450 2C19; read-out: AC50): 14.1 µM (inconclusive)
SMILES: Cc1ccc(-c2ccc(CCC(=O)O)n2CC2CCCO2)cc1 (configuration not stated)

SMILES: c1ccc(CCNc2nc(-c3ccncc3)cs2)cc1
EC50 [2]: > 60 µM (not active)
EC50 [3]: 1.8 µM (active)

EC50 [1]: > 195 µM (not active)
SMILES: COC(=O)CCC(=O)NNC(=O)c1cccc(Br)c1

EC50 [1]: > 195 µM (not active)
SMILES: COc1ccc(C(=O)NC(=S)N2CCNC(=O)C2CC(=O)OC(C)C)cc1 (configuration not stated)

SMILES: O=C(Nc1ccc2c(c1)OCO2)C1CCN(C(=O)CSc2ncnc3ccccc23)CC1
CC50 [4]: 41.4 µM (active)

SMILES: COC(=O)C1(C)C=C2C(=C(C)C(=O)C2C)CN1 (configuration not stated)
AC50 (Cytochrome P450 1A2): 31.6 µM (inconclusive)

AC50 (Cytochrome P450 1A2): 22.4 µM (inconclusive)
SMILES: Cc1cccc(-n2c(=O)c3c(n4cnnc24)-c2ccccc2CC32CCCCC2)c1

EC50 [1]: > 195 µM (not active)
SMILES: Fc1ccccc1N1CCN(Cc2cc(-c3ccccc3)on2)CC1

SMILES: O=[N+]([O-])c1nn(-c2ccc3c(c2)OCCO3)[n+]([O-])c1NC1CCN(Cc2ccccc2)CC1
EC50 [2]: > 60 µM (not active)
EC50 [3]: 0.163 µM (active)

SMILES: C#C[C@@]1(O)CC[C@@H]2[C@@H]3CCC4=CC(=O)CC[C@@]4(C)[C@H]3CC[C@]21C
AC50 (Cytochrome P450 2C19; read-out: AC50): 0.501 µM (inconclusive)

SMILES: CCN(Cc1ccncc1)C(=O)c1cc(COc2ccc(C)c(C)c2)on1
EC50 [2]: > 60 µM (not active)
EC50 [3]: 1.07 µM (active)

AC50 (Cytochrome P450 1A2): 14.1 µM (inconclusive)
SMILES: Cc1ccc(SCCNC(=O)c2ccc(C)c(S(=O)(=O)Nc3ccccc3C)c2)cc1

SMILES: CCCCc1ccc(NC(S)=NCc2cccc(OC)c2)cc1
EC50 [2]: > 60 µM (not active)
EC50 [3]: 3.51 µM (active)

EC50 [1]: > 195 µM (not active)
SMILES: CNC(=O)/C(C#N)=C/c1ccc(-c2ccc(OC)cc2[N+](=O)[O-])o1

SMILES: COC(=O)c1ccc(OC)c(CN2CCCN(Cc3cc(C)ccc3C)S2(=O)=O)c1
EC50 [2]: > 60 µM (not active)
EC50 [3]: 1.11 µM (active)

SMILES: CCCOc1ccc(N2C(=O)CC(SC(=N)N3N=C(c4ccccc4)CC3c3ccccc3)C2=O)cc1 (configuration not stated)
EC50 [2]: > 60 µM (not active)
EC50 [3]: 2.05 µM (active)

EC50 [1]: > 195 µM (not active)
SMILES: Cn1cc(Cl)c(-c2nnc(S)n2-c2ccc(F)cc2)n1

EC50 [1]: > 195 µM (not active)
SMILES: c1cc2c(cc1C1CCCN1)OCCCO2 (configuration not stated)

AC50 (Cytochrome P450 2C19; read-out: AC50): 25.1 µM (inconclusive)
SMILES: COc1cccc(-c2cc(NCc3cccs3)ncn2)c1

AC50 (Cytochrome P450 1A2): 3.55 µM (inconclusive)
SMILES: Cc1ccc2oc(-c3cccc(NC(=S)NC(=O)/C=C/c4ccco4)c3)nc2c1

SMILES: CCC1CCc2sc(C(=O)NCC(c3ccc(OC)cc3)N3CCCC3)cc2C1 (configuration not stated)
EC50 [2]: > 60 µM (not active)
EC50 [3]: 1.83 µM (active)

SMILES: CCN(c1ccccc1)S(=O)(=O)c1ccc(Cl)c(NC(=O)CN2CCCCCC2)c1
EC50 [2]: > 60 µM (not active)
EC50 [3]: 1.04 µM (active)

SMILES: Cc1cccn2cc(-c3cccc(S(=O)(=O)N4CC(C)OC(C)C4)c3)nc12 (configuration not stated)
CC50 [4]: 44.6 µM (active)

AC50 (Cytochrome P450 1A2): 2 µM (inconclusive)
SMILES: O=c1c(-c2ccc(F)cc2)nc2cnc(Nc3ccccc3)nc2n1Cc1cccs1

SMILES: Cc1c(Cl)ccc2c(C(=O)Nc3cc(C(C)(C)C)on3)cc(-c3ccccn3)nc12
EC50 [2]: > 60 µM (not active)
EC50 [3]: 1.95 µM (active)

AC50 (Cytochrome P450 2C19): inconclusive
SMILES: COc1cccc(Cn2c(=O)c(-c3ccc(F)cc3)nc3cnc(N4CCOCC4)nc32)c1

EC50 [1]: 69.4 µM (active)
SMILES: CC(C)Oc1ccc(C(=O)O)cc1

AC50 (Cytochrome P450 2C19; read-out: AC50): 2.82 µM (inconclusive)
SMILES: Brc1ccc2ncnc(Nc3cccc4ccccc34)c2c1

SMILES: COc1cc(NC(=O)COC(=O)/C=C/c2c(C)nn(-c3ccc(F)cc3)c2Cl)cc(OC)c1
EC50 [2]: > 60 µM (not active)
EC50 [3]: 0.691 µM (active)

— ChEMBL document CHEMBL1201862, “PubChem BioAssay data set” (2004)
